Patent publication EP4722207A1, “OXOISOINDOLINYL-SUBSTITUTED TETRAHYDROPYRIMIDINEDIONE DERIVATIVE AND USE THEREOF” (Gluetacs Therapeutics (Shanghai) Co., Ltd., priority 2023, dated 2024)

Columns and labels:
Type in all cases: cell-based
Conditions in all cases: 24 hours of compound treatment, 50 nM and 500 nM
[1] = molecular target: T1, GSPT1 (Homo sapiens, UniProt P15170+Q96SW2); experiment: Western-blot assay, substrate protein degradation in hPBMCs: GSPT1
T1 construct: effects of the compounds of the present disclosure on the expression of target proteins in cells; endogenous in cells; host or cells: human PBMCs (hPBMCs)

[2] = molecular target: T2, IKZF3 (Homo sapiens, UniProt Q96SW2+Q9UKT9); experiment: Western-blot assay, substrate protein degradation in hPBMCs: IKZF3
T2 construct: effects of the compounds of the present disclosure on the expression of target proteins in cells; endogenous in cells; host or cells: human PBMCs (hPBMCs)

[3] = molecular target: T3, CK1α (Homo sapiens, UniProt P48729+Q96SW2); experiment: Western-blot assay, substrate protein degradation in hPBMCs: CK1α
T3 construct: effects of the compounds of the present disclosure on the expression of target proteins in cells; endogenous in cells; host or cells: human PBMCs (hPBMCs)

[4] = molecular target: T4, IKZF2 (Homo sapiens, UniProt Q96SW2+Q9UKS7); experiment: Western-blot assay, substrate protein degradation in hPBMCs: IKZF2
T4 construct: effects of the compounds of the present disclosure on the expression of target proteins in cells; endogenous in cells; host or cells: human PBMCs (hPBMCs)

[5] = molecular target: T5, IKZF1 (Homo sapiens, UniProt Q13422+Q96SW2); experiment: Western-blot assay, substrate protein degradation in hPBMCs: IKZF1
T5 construct: effects of the compounds of the present disclosure on the expression of target proteins in cells; endogenous in cells; host or cells: human PBMCs (hPBMCs)

[6] = molecular target: T6, WEE1 (Homo sapiens, UniProt P30291+Q96SW2); experiment: Western-blot assay, substrate protein degradation in hPBMCs: WEE1
T6 construct: effects of the compounds of the present disclosure on the expression of target proteins in cells; endogenous in cells; host or cells: human PBMCs (hPBMCs)
T6 sequence (P30291 whole entry): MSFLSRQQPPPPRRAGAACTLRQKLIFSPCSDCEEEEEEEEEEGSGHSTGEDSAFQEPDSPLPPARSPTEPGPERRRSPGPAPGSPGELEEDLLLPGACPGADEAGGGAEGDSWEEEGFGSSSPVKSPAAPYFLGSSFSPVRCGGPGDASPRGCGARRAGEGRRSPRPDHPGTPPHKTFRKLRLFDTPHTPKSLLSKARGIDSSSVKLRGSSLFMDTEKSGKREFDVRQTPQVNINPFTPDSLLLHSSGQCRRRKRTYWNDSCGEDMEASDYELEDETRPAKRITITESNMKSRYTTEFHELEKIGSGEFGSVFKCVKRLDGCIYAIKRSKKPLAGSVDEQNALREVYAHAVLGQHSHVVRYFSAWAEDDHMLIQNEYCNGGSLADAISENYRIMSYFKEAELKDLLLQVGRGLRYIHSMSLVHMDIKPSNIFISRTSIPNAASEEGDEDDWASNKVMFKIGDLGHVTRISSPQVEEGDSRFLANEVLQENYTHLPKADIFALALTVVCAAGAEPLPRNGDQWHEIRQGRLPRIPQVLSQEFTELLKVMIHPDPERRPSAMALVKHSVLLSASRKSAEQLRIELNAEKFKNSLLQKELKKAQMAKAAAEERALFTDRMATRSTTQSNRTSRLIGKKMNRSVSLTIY
T6 sequence (Q96SW2 whole entry): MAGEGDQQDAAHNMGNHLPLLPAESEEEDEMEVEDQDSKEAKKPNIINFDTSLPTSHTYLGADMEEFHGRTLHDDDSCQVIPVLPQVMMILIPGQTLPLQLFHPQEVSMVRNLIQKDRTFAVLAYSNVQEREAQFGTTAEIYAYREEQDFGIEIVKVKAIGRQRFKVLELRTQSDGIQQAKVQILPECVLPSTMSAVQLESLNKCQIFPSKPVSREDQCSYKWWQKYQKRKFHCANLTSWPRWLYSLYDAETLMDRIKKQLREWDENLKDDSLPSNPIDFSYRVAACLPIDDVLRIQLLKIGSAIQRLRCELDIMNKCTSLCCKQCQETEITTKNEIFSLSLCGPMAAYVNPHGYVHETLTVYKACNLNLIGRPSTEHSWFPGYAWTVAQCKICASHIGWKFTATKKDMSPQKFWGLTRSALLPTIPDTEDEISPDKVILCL
T6 sequence (Q16531 whole entry partner): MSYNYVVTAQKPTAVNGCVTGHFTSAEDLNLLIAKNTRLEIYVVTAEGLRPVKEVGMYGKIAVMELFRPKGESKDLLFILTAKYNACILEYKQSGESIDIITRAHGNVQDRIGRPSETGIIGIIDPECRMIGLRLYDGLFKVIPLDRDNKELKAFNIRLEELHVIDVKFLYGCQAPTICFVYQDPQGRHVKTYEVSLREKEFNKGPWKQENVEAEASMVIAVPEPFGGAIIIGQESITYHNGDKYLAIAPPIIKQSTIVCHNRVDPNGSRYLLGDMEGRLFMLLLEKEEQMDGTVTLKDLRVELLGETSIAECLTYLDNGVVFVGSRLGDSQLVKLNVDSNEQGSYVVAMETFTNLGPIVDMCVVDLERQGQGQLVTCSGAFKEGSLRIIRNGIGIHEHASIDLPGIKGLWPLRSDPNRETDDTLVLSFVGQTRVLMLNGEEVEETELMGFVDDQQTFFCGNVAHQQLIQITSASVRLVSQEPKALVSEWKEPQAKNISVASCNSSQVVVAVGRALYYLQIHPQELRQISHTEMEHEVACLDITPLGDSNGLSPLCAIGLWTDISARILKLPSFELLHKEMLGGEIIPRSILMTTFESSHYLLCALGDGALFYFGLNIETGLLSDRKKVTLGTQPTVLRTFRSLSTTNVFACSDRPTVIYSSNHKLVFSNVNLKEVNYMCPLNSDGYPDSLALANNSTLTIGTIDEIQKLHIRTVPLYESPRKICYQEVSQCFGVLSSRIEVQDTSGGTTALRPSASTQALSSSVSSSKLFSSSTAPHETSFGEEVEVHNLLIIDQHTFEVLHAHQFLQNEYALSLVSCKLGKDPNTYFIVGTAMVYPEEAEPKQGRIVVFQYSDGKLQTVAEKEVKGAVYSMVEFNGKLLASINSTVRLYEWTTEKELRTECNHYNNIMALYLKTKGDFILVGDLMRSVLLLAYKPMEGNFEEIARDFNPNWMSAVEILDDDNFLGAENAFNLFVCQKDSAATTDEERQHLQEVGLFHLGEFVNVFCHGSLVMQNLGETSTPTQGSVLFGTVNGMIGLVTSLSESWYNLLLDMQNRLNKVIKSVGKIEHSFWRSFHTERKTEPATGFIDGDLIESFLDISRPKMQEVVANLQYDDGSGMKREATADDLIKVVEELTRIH

T5 sequence (Q13422 whole entry): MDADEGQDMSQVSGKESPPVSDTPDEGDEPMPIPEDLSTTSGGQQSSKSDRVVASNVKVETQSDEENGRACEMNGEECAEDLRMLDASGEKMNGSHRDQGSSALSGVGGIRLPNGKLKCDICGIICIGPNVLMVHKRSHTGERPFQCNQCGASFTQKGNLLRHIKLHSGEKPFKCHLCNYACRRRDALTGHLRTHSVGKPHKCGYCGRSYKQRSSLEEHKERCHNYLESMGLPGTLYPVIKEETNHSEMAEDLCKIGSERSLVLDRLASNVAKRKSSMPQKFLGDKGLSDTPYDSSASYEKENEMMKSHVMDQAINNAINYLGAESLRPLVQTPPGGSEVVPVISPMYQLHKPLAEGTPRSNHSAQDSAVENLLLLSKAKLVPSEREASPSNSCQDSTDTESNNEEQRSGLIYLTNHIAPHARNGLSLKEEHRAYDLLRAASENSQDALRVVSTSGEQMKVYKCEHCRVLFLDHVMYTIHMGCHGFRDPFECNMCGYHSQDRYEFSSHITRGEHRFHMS
T5 sequence (Q96SW2 whole entry): as the sequence (Q96SW2 whole entry) above
T5 sequence (Q16531 whole entry partner): as the sequence (Q16531 whole entry partner) above
T3 sequence (P48729 whole entry): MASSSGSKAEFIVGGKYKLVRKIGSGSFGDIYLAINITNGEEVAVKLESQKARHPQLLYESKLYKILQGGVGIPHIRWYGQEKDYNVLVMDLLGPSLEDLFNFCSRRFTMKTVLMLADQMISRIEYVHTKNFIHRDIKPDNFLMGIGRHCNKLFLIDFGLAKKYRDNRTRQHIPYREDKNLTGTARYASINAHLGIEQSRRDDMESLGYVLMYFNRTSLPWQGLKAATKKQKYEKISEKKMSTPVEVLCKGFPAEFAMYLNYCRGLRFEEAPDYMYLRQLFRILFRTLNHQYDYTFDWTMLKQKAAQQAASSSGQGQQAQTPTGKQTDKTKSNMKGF
T3 sequence (Q96SW2 whole entry): as the sequence (Q96SW2 whole entry) above
T3 sequence (Q16531 whole entry partner): as the sequence (Q16531 whole entry partner) above
T1 sequence (P15170 whole entry): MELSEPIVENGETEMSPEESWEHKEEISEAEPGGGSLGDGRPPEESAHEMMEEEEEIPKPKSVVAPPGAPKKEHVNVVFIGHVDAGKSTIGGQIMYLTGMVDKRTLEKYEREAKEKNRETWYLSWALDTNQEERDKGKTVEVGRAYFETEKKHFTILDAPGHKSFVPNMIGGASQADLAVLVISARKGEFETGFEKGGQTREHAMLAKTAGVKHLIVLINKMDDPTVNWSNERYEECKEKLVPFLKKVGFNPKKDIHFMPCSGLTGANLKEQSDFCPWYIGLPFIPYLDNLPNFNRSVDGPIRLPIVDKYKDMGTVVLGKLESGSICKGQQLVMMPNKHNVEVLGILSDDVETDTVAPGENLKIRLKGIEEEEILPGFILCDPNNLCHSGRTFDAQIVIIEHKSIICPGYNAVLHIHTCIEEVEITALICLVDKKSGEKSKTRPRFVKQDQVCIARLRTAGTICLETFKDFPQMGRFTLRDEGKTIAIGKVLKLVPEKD
T1 sequence (Q96SW2 whole entry): as the sequence (Q96SW2 whole entry) above
T1 sequence (Q16531 whole entry partner): as the sequence (Q16531 whole entry partner) above
T2 sequence (Q9UKT9 whole entry): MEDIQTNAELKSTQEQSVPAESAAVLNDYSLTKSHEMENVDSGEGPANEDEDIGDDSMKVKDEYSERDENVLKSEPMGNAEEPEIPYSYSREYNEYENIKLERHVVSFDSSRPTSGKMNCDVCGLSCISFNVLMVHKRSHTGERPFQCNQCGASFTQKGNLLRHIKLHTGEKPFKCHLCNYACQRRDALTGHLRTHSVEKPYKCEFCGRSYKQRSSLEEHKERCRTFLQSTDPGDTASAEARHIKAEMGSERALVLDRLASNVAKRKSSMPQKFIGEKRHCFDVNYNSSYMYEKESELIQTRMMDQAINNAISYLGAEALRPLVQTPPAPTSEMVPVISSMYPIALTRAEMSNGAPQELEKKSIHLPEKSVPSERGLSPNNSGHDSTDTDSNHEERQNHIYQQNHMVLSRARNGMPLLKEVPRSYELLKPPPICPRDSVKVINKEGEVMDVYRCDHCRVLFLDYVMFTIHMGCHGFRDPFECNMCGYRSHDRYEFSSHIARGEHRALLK
T2 sequence (Q96SW2 whole entry): as the sequence (Q96SW2 whole entry) above
T2 sequence (Q16531 whole entry partner): as the sequence (Q16531 whole entry partner) above

SMILES: O=C1CCN(N2Cc3cc(CN4CCN(CC5=C(c6ccc(F)cc6)CCCC5)CC4)ccc3C2=O)C(=O)N1 [GT-07297, 1-(5-((4-((4'-fluoro-3,4,5,6-tetrahydro-[1,1'-biphenyl]-2-yl)methyl)piperazin-1-yl)methyl)-1-oxoisoindolin-2-yl)dihydropyrimidine-2,4(1H,3H)-dione]
- substrate protein remaining % GSPT1 [1]: A (0% ≤ substrate protein remaining % ≤ 80%)
- substrate protein remaining % IKZF3 [2]: A (0% ≤ substrate protein remaining % ≤ 80%)
- substrate protein remaining % CK1α [3]: A (0% ≤ substrate protein remaining % ≤ 80%)
- substrate protein remaining % IKZF2 [4]: A (0% ≤ substrate protein remaining % ≤ 80%)
- substrate protein remaining % IKZF1 [5]: B (80%< substrate protein remaining %≤ 100%)
- substrate protein remaining % WEE1 [6]: A (0% ≤ substrate protein remaining % ≤ 80%)

SMILES: CC1(C)CCC(CN2CC3CCC2CN3Cc2ccc3c(c2)C(=O)N(N2CCC(=O)NC2=O)C3=O)=C(c2ccc(Cl)cc2)C1 (stereo not drawn) [GT-07300, 5-((5-((4'-chloro-5,5-dimethyl-3,4,5,6-tetrahydro-[1,1'-biphenyl]-2-yl)methyl)-2,5-diazabicyclo[2.2.2]octan-2-yl)methyl)-2-(2,4-dioxotetrahydropyrimidin-1(2H)-yl)isoindoline-1,3-dione]
- substrate protein remaining % GSPT1 [1]: B (80%< substrate protein remaining %≤ 100%)
- substrate protein remaining % IKZF3 [2]: B (80%< substrate protein remaining %≤ 100%)
- substrate protein remaining % CK1α [3]: B (80%< substrate protein remaining %≤ 100%)
- substrate protein remaining % IKZF2 [4]: B (80%< substrate protein remaining %≤ 100%)
- substrate protein remaining % IKZF1 [5]: B (80%< substrate protein remaining %≤ 100%)
- substrate protein remaining % WEE1 [6]: A (0% ≤ substrate protein remaining % ≤ 80%)

SMILES: CC1(C)CCC(CN2CCN(Cc3ccc4c(c3)C(=O)N(N3CCC(=O)NC3=O)C4=O)C(C(F)(F)F)C2)=C(c2ccc(Cl)cc2)C1 (stereo not drawn) [GT-07301, 5-((4-((4'-chloro-5,5-dimethyl-3,4,5,6-tetrahydro-[1,1'-biphenyl]-2-yl)methyl)-2-(trifluoromethyl)piperazin-1-yl)methyl)-2-(2,4-dioxotetrahydropyrimidin-1(2H)-yl)isoindoline-1,3-dione]
- substrate protein remaining % GSPT1 [1]: A (0% ≤ substrate protein remaining % ≤ 80%)
- substrate protein remaining % IKZF3 [2]: B (80%< substrate protein remaining %≤ 100%)
- substrate protein remaining % CK1α [3]: B (80%< substrate protein remaining %≤ 100%)
- substrate protein remaining % IKZF2 [4]: B (80%< substrate protein remaining %≤ 100%)
- substrate protein remaining % IKZF1 [5]: B (80%< substrate protein remaining %≤ 100%)
- substrate protein remaining % WEE1 [6]: B (80%< substrate protein remaining %≤ 100%)

SMILES: O=C1CCN(N2C(=O)c3ccc(CN4CCN(CC5=C(c6ccc(F)cc6)CCCC5)CC4)cc3C2=O)C(=O)N1 [GT-07302, 2-(2,4-dioxotetrahydropyrimidin-1(2H)-yl)-5-((4-((4'-fluoro-3,4,5,6-tetrahydro-[1,1'-biphenyl]-2-yl)methyl)piperazin-1-yl)methyl)isoindoline-1,3-dione]
- substrate protein remaining % GSPT1 [1]: B (80%< substrate protein remaining %≤ 100%)
- substrate protein remaining % IKZF3 [2]: B (80%< substrate protein remaining %≤ 100%)
- substrate protein remaining % CK1α [3]: B (80%< substrate protein remaining %≤ 100%)
- substrate protein remaining % IKZF2 [4]: B (80%< substrate protein remaining %≤ 100%)
- substrate protein remaining % IKZF1 [5]: B (80%< substrate protein remaining %≤ 100%)
- substrate protein remaining % WEE1 [6]: A (0% ≤ substrate protein remaining % ≤ 80%)

SMILES: CC1(C)CC(c2ccc(Cl)cc2)=C(CN2CCN(Cc3ccc4c(c3)C(=O)N(N3CCC(=O)NC3=O)C4=O)CC2)CO1 [GT-07304, 5-((4-((4-(4-chlorophenyl)-6,6-dimethyl-5,6-dihydro-2H-pyran-3-yl)methyl)piperazin-1-yl)methyl)-2-(2,4-dioxotetrahydropyrimidin-1(2H)-yl)isoindoline-1,3-dione]
- substrate protein remaining % GSPT1 [1]: A (0% ≤ substrate protein remaining % ≤ 80%)
- substrate protein remaining % IKZF3 [2]: B (80%< substrate protein remaining %≤ 100%)
- substrate protein remaining % CK1α [3]: A (0% ≤ substrate protein remaining % ≤ 80%)
- substrate protein remaining % IKZF2 [4]: B (80%< substrate protein remaining %≤ 100%)
- substrate protein remaining % IKZF1 [5]: B (80%< substrate protein remaining %≤ 100%)
- substrate protein remaining % WEE1 [6]: B (80%< substrate protein remaining %≤ 100%)

SMILES: Cc1ccsc1C1CCN(Cc2ccc3c(c2)CN(N2CCC(=O)NC2=O)C3=O)CC1 [GT-07305, 1-(5-((4-(3-methylthiophen-2-yl)piperidin-1-yl)methyl)-1-oxoisoindolin-2-yl)dihydropyrimidine-2,4(1H,3H)-dione]
- substrate protein remaining % GSPT1 [1]: A (0% ≤ substrate protein remaining % ≤ 80%)
- substrate protein remaining % IKZF3 [2]: A (0% ≤ substrate protein remaining % ≤ 80%)
- substrate protein remaining % CK1α [3]: B (80%< substrate protein remaining %≤ 100%)
- substrate protein remaining % IKZF2 [4]: A (0% ≤ substrate protein remaining % ≤ 80%)
- substrate protein remaining % IKZF1 [5]: B (80%< substrate protein remaining %≤ 100%)
- substrate protein remaining % WEE1 [6]: B (80%< substrate protein remaining %≤ 100%)

SMILES: Cc1ccsc1C1CCN(Cc2ccc3c(c2)C(=O)N(N2CCC(=O)NC2=O)C3=O)CC1 [GT-07306, 2-(2,4-dioxotetrahydropyrimidin-1(2H)-yl)-5-((4-(3-methylthiophen-2-yl)piperidin-1-yl)methyl)isoindoline-1,3-dione]
- substrate protein remaining % GSPT1 [1]: A (0% ≤ substrate protein remaining % ≤ 80%)
- substrate protein remaining % IKZF3 [2]: A (0% ≤ substrate protein remaining % ≤ 80%)
- substrate protein remaining % CK1α [3]: B (80%< substrate protein remaining %≤ 100%)
- substrate protein remaining % IKZF2 [4]: B (80%< substrate protein remaining %≤ 100%)
- substrate protein remaining % IKZF1 [5]: B (80%< substrate protein remaining %≤ 100%)
- substrate protein remaining % WEE1 [6]: B (80%< substrate protein remaining %≤ 100%)

SMILES: CC1(C)CCC(CN2CC3CC2CN3Cc2ccc3c(c2)CN(N2CCC(=O)NC2=O)C3=O)=C(c2ccc(Cl)cc2)C1 (stereo not drawn) [GT-07329, 1-(5-((5-((4'-chloro-5,5-dimethyl-3,4,5,6-tetrahydro-[1,1'-biphenyl]-2-yl)methyl)-2,5-diazabicyclo[2.2.1]heptan-2-yl)methyl)-1-oxoisoindolin-2-yl)dihydropyrimidine-2,4(1H,3H)-dione]
- substrate protein remaining % GSPT1 [1]: A (0% ≤ substrate protein remaining % ≤ 80%)
- substrate protein remaining % IKZF3 [2]: B (80%< substrate protein remaining %≤ 100%)
- substrate protein remaining % CK1α [3]: B (80%< substrate protein remaining %≤ 100%)
- substrate protein remaining % IKZF2 [4]: B (80%< substrate protein remaining %≤ 100%)
- substrate protein remaining % IKZF1 [5]: B (80%< substrate protein remaining %≤ 100%)
- substrate protein remaining % WEE1 [6]: A (0% ≤ substrate protein remaining % ≤ 80%)

SMILES: CC1(C)CCC(CN2CC3CCC(C2)N3Cc2ccc3c(c2)CN(N2CCC(=O)NC2=O)C3=O)=C(c2ccc(Cl)cc2)C1 [GT-07330, 1-(5-((3-((4'-chloro-5,5-dimethyl-3,4,5,6-tetrahydro-[1,1'-biphenyl]-2-yl)methyl)-3,8-diazabicyclo[3.2.1]octan-8-yl)methyl)-1-oxoisoindolin-2-yl)dihydropyrimidine-2,4(1H,3H)-dione]
- substrate protein remaining % GSPT1 [1]: A (0% ≤ substrate protein remaining % ≤ 80%)
- substrate protein remaining % IKZF3 [2]: A (0% ≤ substrate protein remaining % ≤ 80%)
- substrate protein remaining % CK1α [3]: B (80%< substrate protein remaining %≤ 100%)
- substrate protein remaining % IKZF2 [4]: A (0% ≤ substrate protein remaining % ≤ 80%)
- substrate protein remaining % IKZF1 [5]: A (0% ≤ substrate protein remaining % ≤ 80%)
- substrate protein remaining % WEE1 [6]: A (0% ≤ substrate protein remaining % ≤ 80%)
